Here are results for two compounds from article PMC5156471, “Complementary pharmacological and toxicological characterization data on the pharmacological profile of N-(2,6-dichlorophenyl)-2-(4-methyl-1-piperidinyl) acetamide” (Data in Brief, 2016).

Data set [1] concerns brine shrimp larvae (Artemia salina L.). Kind of data set: Artemia saline lethality test. It is filed as in vivo.
Data set [2] is described as follows: Acute toxicity in mice by the Lorke method. The following applies: male, ICR, mouse, in vivo, ip. The method, then: (§1) Experiments were performed on ICR male mice by the Lorke method. Doses were selected according this method. In both phases, mice were observed daily for 14 days for mortality, toxic effects and behavioral changes. Restlessness, respiratory distress, seizures, diarrhea, motor activity, posture and reflexes were qualitatively determined. Body weight was also monitored. The internal organs (including the stomach, heart, lung, liver, and kidneys) were removed at the end of experiment and visually examined for lesions.

The subject of data set [3] is ICR male mice. Kind of data set: Acute toxicity in mice by the Lorke method. The following applies: for Dead mice: i.p., dead/treated, observed 14 days. The method, then:
as §1

In data set [4] the test system is bone marrow polychromatic erythrocytes. It is filed as in vivo, mice. The method, then: This test was carried out following standard protocols, [5]. […] Animals were sacrificed 24 h later and the bone marrow from both femurs was flushed out using 2 mL of saline and centrifuged for 5 min at 3000 rpm. The supernatant was discarded, and the pellet was re-suspended in 0.3 mL of saline. Of this smears were made on glass slides. The slides were fixed with methanol and stained with 10% Wright–Giemsa stain. Cells were blindly scored using a light microscope at 100 X magnification. For the analysis of micronucleated cells, 1000 polychromatic erythrocytes (PCE) per animal were scored. In order to assess the cytotoxic effects of compounds, the ratio of PCE to normochromatic erythrocytes (NCE) was determined in 1000 erythrocytes, [5]. The results are presented as the mean number of micronucleated polychromatic erythrocytes (MNPCE) or the ratio PCE:NCE in individual mice (two smears per animal)±SEM for five animals per group (Table 3).

The test system of data set [5] is normotensive rats. Kind of data set: Cardiovascular response in normotensive conscious rats (tail cuff method). It is filed as in vivo. The note with it: 50 and 80 mg/kg, p.o. The method, then:
The hypotensive activity was determined using a standard protocol of Avila-Villarreal et al.. This study was conducted in normotensive rats. […] Systolic and diastolic blood pressure as well as heart rate were recorded before and after treatment at 0, 1, 3, 5 and 7 h by the tail cuff method using a Panlab non-invasive blood pressure system for rodents and dogs (Harvard Apparatus). Percent of reduction in heart rate (HR), systolic blood pressure (SBP) or diastolic blood pressure (DBP) were calculated using diltiazem as control (Fig. 2).

Setting [6] is: mice, i.p. (LIA, lidocaine 100 mg/kg; cyclophosphamide 40 mg/kg), 24 h, mean±SEM, five animals.

Where two headings read alike, the source gives them in different places.

What is called LC50 is the concentration that kills 50% of the test population. Low readings indicate a more lethal substance, high ones a less lethal substance. Broadly, the LD50 is the dose expected to kill half of the subjects tested. The low end stands for a more toxic substance, the high end for a less toxic substance. The compound `CC1CCN(CC(=O)Nc2c(Cl)cccc2Cl)CC1` [LIA, N-(2,6-dichlorophenyl)-2-(4-methyl-1-piperidinyl)acetamide] registered an LC50 in data set [1] (Artemia saline L., 24 h, 100-1000 ppm in triplicate) of 335.1 ±85.7 ppm. In data set [1] (in vivo), the “Toxicity in Brine Ship (in words)” value is on record as “not toxic”. In data set [2], this compound yielded an LD50 at 14 days of 800 mg/kg. Besides, the Dead mice in data set [3] (Phase I, 10 mg/kg) was 0/3; in data set [3] (Phase I, 100 mg/kg), 0/3; in data set [3] (Phase I, 1000 mg/kg), 3/3; in data set [3] (Phase II, 140 mg/kg) it was 0/3; in data set [3] (Phase II, 225 mg/kg), 0/3; in data set [3] (Phase II, 370 mg/kg), 0/3. Besides, the Dead mice in data set [3] (Phase II, 600 mg/kg) is 3/3. Further, in data set [3] (mice, visual examination at the end of experiment (14 days)), the “Macroscopic damage of internal organs (stomach, heart, lung, liver, kidneys)” value was “Neither LIA nor lidocaine produced visible macroscopically damage”. In addition, the “Toxicity in mice (in words)” value in data set [3] (mouse, in vivo) is listed as “not toxic”. Further, in data set [4] (male, ICR, mouse, in vivo), the “MNPCE per 1000 PCE” value was 5.8±1.9 ^⁎^, ^#. The “PCE:NCE” value in data set [4] (male, ICR, mouse, in vivo) came out at 20.7±1.6. In addition, the “Genotoxicity in mice (in words)” value in data set [4] (mouse, in vivo) is “not genotoxic”. Moreover, the “Cardiovascular responses (heart rate, systolic and diastolic blood pressure; in words)” value in data set [5] is given as “does not modify cardiovascular responses”.

On to `O=P1(N(CCCl)CCCl)NCCCO1` (stereo not drawn) [Cyclophosphamide, reference compound], for which, in data set [4] (setting [6]), the “MNPCE per 1000 PCE” value worked out at 82.6±1.8 and the “PCE:NCE” value is recorded as 14±0.3.
